Measured values: patent US9828588B2, “Methods and compositions for producing active vitamin K-dependent proteins” (The University of North Carolina at Chapel Hill, priority 2005, dated 2017)

Test system: P450 2C9
Assay: Average warfarin maintenance dose in patients by P450 2C9 genotype
Format: in vivo, human
Details: patients heterozygous for P450 2C9*3, n=8
Source text: Subjects were obtained from the UNC Coagulation Clinic in the Ambulatory Care Center. Informed consent was obtained by a trained genetic counselor. Subjects not fluent in English were excluded because of the lack of translators and the requirement for consent.
The difference of average dose between different genotypes was compared by analysis of variance (ANOVA) using SAS version 8.0 (SAS, Inc., Cary, N.C.). A two-sided p value less than 0.05 was considered significant.
Each marker was first analyzed independently.
SAS was used first to do a repeated procedure in which a series of factors (race, gender, smoking history, hepatic diseases, SNPs at cytochrome […] gene, etc.) were examined to identify factors, excluding VKOR SNPs, which might affect dosage.

Compound CC(=O)CC(c1ccccc1)c1c(O)c2ccccc2oc1=O (stereo not shown) [warfarin] has an average warfarin dose of 22.4±4.34 mg per week.
